Among the data in patent US20240398828A1, “HETERO-ATOM CONTAINING COMPOUNDS AND USES THEREOF” (Kumquat Biosciences Inc., priority 2021, published 2024) are IC50 values, retold here.

Assay [1] has as its target T1, PTPN2 (i.e., TC-PTP) (Homo sapiens, UniProt P17706).
T1 sequence (P17706 1-415): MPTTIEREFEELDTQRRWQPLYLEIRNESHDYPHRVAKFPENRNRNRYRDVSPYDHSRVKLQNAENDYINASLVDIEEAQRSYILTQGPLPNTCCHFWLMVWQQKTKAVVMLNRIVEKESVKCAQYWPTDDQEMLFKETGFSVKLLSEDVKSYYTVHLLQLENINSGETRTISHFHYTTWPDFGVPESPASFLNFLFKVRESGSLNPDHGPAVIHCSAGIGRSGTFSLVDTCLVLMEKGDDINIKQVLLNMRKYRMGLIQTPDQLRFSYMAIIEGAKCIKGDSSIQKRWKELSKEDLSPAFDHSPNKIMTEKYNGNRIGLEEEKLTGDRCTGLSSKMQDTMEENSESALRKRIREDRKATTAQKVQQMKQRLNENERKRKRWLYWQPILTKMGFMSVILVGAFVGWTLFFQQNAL
The experiment in a line: Phosphatase activity assay (DiFMUP substrate), PTPN2. The class given is biochemical. Particulars: compounds binned ≤1 uM or >1 uM. In short, it runs like this:
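Read-out is continuous fluorescence of DiFMU (360 nm excitation, 450 nm emission) over about 15-30 minutes, with DiFMUP substrate at the enzyme's independently determined Km (PTPN2 approx. 45 μM final). Buffer: 50 mM HEPES pH 7.5, 150 mM NaCl, 0.5 mM EDTA, 1 mM DTT, 0.001% Tween-20, room temperature; initial rates versus 10-point dilution fitted for IC50, at least duplicate.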

Assay [2] addresses T2, PTPN1 (i.e., PTP1B) (Homo sapiens, UniProt P18031).
T2 sequence (P18031 1-435): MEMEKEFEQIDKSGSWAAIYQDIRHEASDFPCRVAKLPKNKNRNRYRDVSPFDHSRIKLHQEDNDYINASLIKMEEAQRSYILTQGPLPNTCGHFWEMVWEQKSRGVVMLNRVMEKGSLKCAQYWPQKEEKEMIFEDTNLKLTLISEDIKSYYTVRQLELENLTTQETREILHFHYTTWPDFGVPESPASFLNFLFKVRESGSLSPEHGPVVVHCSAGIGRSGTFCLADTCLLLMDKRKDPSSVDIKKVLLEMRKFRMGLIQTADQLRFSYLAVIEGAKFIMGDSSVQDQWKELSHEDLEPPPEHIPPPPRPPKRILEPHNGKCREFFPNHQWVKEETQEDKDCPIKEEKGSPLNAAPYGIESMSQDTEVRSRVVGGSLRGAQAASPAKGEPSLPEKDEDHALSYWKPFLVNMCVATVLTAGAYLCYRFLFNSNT
Put plainly: Phosphatase activity assay (DiFMUP substrate), PTP1B. The note with it: compounds binned ≤1 uM or >1 uM. The format is biochemical. In outline: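 Continuous fluorogenic readout of DiFMUP dephosphorylation at room temperature, substrate set at Km for each phosphatase (about 45 μM in the PTPN2 assay). The buffer contains 1 mM DTT and 0.001% Tween-20, pH 7.5.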

On to `Cc1nsc(-c2ccc(O)c(N3CC(=O)NS3(=O)=O)c2F)n1` [Compound 425, 5-(2-fluoro-6-hydroxy-3-(3-methyl-1,2,4-thiadiazol-5-yl)phenyl)-1,2,5-thiadiazolidin-3-one 1,1-dioxide], for which the IC50 in assay [1] and in assay [2] was not above 1000 nM each time.
For the compound `O=C1CN(c2c(O)ccc(-c3cc4ccccc4[nH]3)c2F)S(=O)(=O)N1` [Compound 258, 5-(2-fluoro-6-hydroxy-3-(1H-indol-2-yl)phenyl)-1,2,5-thiadiazolidin-3-one 1,1-dioxide], the IC50 in assay [1] and in assay [2] was not above 1000 nM each time.
With `Nc1nc2ccc(-c3ccc(O)c(N4CC(=O)NS4(=O)=O)c3F)cc2o1` [Compound 191, 5-(3-(2-aminobenzo[d]oxazol-6-yl)-2-fluoro-6-hydroxyphenyl)-1,2,5-thiadiazolidin-3-one 1,1-dioxide], the IC50 in assay [1] and in assay [2] was not above 1000 nM throughout.
Turning to `O=C1CN(c2c(O)ccc(-c3cc(C4CC4)n[nH]3)c2F)S(=O)(=O)N1` [Compound 421, 5-(3-(3-cyclopropyl-1H-pyrazol-5-yl)-2-fluoro-6-hydroxyphenyl)-1,2,5-thiadiazolidin-3-one 1,1-dioxide], the IC50 in assay [1] and in assay [2] was not above 1000 nM each time.
Take `CC(C)CNc1cccc(-c2ccc(O)c(N3CC(=O)NS3(=O)=O)c2F)c1` [Compound 137, 5-(2-fluoro-4-hydroxy-3′-(isobutylamino)-[1,1′-biphenyl]-3-yl)-1,2,5-thiadiazolidin-3-one 1,1-dioxide]: the IC50 in assay [1] and in assay [2] was not above 1000 nM each time.
With `O=C1CN(c2c(O)ccc(C3=CC(CCC4CC4)NC3)c2F)S(=O)(=O)N1` (stereo not drawn) [Compound 539, 5-(3-(5-(2-cyclopropylethyl)-2,5-dihydro-1H-pyrrol-3-yl)-2-fluoro-6-hydroxyphenyl)-1,2,5-thiadiazolidin-3-one 1,1-dioxide], the IC50 in assay [1] and in assay [2] was not above 1000 nM in each case.
Take `O=C1CN(c2c(O)ccc(-c3cnn(Cc4cccc(F)c4)c3)c2F)S(=O)(=O)N1` [Compound 222, 5-(2-fluoro-3-(1-(3-fluorobenzyl)-1H-pyrazol-4-yl)-6-hydroxyphenyl)-1,2,5-thiadiazolidin-3-one 1,1-dioxide]: the IC50 in assay [1] and in assay [2] was not above 1000 nM throughout.
Turning to `O=C1CN(c2c(O)ccc(-c3cnn(-c4ccccc4)c3)c2F)S(=O)(=O)N1` [Compound 147, 5-(2-fluoro-6-hydroxy-3-(1-phenyl-1H-pyrazol-4-yl)phenyl)-1,2,5-thiadiazolidin-3-one 1,1-dioxide], the IC50 in assay [1] and in assay [2] was not above 1000 nM in each case.
Take `O=C1CN(c2c(O)ccc(-c3cc(N4CCCOCC4)n[nH]3)c2F)S(=O)(=O)N1` [Compound 344, 5-(3-(3-(1,4-oxazepan-4-yl)-1H-pyrazol-5-yl)-2-fluoro-6-hydroxyphenyl)-1,2,5-thiadiazolidin-3-one 1,1-dioxide]: the IC50 in assay [1] and in assay [2] was not above 1000 nM each time.
Turning to `O=C1CN(c2c(O)ccc(-c3cc(C4CC4CO)n[nH]3)c2F)S(=O)(=O)N1` (stereo not drawn) [Compound 501, 5-(2-fluoro-6-hydroxy-3-(3-(2-(hydroxymethyl)cyclopropyl)-1H-pyrazol-5-yl)phenyl)-1,2,5-thiadiazolidin-3-one 1,1-dioxide], the half-maximal inhibitory concentration (IC50) in assay [1] and in assay [2] was not above 1000 nM each time.
As for `O=C1CN(c2c(O)ccc(C3=CC(CCc4ccccc4)NC3)c2F)S(=O)(=O)N1` (stereo not drawn) [Compound 473, 5-(2-fluoro-6-hydroxy-3-(5-phenethyl-2,5-dihydro-1H-pyrrol-3-yl)phenyl)-1,2,5-thiadiazolidin-3-one 1,1-dioxide], the IC50 in assay [1] and in assay [2] was not above 1000 nM each time.
For `O=C1CN(c2c(O)ccc(-c3cn(-c4ccccc4F)cn3)c2F)S(=O)(=O)N1` [Compound 437, 5-(2-fluoro-3-(1-(2-fluorophenyl)-1H-imidazol-4-yl)-6-hydroxyphenyl)-1,2,5-thiadiazolidin-3-one 1,1-dioxide], the IC50 in assay [1] and in assay [2] was not above 1000 nM in each case.

One may read the IC50 as the concentration at which inhibition is half-maximal.
